Data: patent US20080114066A1, “Synergistic Effects Of Docosahexaenoic Acid (DHA) And Carotenoid Absorption Of Cognitive Function” (Trustees of Tufts College, priority 2005, published 2008)

Assays:
Type in all cases: in vivo, human
[1] = test system: non-smoking women (60-80 years); assay: Verbal Fluency Test; settings: group mean
Source text: (§1) Subjects: Fifty non-smoking women (60-80 years) were recruited from the general population for a 4 month supplementation study. All subjects underwent a screening examination that includes a medical history, a physical examination, and a routine blood clinical chemistry profile. Volunteers with any history or biochemical evidence of lactose intolerance, liver, kidney, or pancreatic disease, anemia, active bowel disease or resection, insulin-dependent diabetes, easy bruising or bleeding, bleeding disorders, hyperglyceridemia, hyperlipidproteinemia, or alcoholism were excluded from the study. Moreover, individuals taking mineral oil or medications suspected of interfering with fat-soluble vitamin absorption were excluded. Subjects using steroids or non-steroid anti-inflammatory drugs, or antihistamine drugs were excluded. […] Subjects were excluded if they have taken any nutrient supplement for 2 months or more before admission into the study or carotene supplements 6 months or more before the study. Smoking was not permitted during the course of the study.
Women were randomly assigned to one of four groups: Control (n=10), DHA (n=14, DHA 800 mg/d), lutein (n=12, lutein 12 mg/d), and lutein+DHA (n=14, lutein 12 mg/d; DHA 800 mg/d) (C, D, L, and LD, respectively). The supplement type was randomized. Subjects visited the Jean Mayer USDA Human Nutrition Research Center on Aging at Tufts University on days that supplements were distributed and blood obtained (0 mo-baseline, 2 mo, and 4 mo). Subjects were instructed to take the supplement with a nutritional energy drink (8 oz., Boost®, Mead Johnson Nutritionals) but were otherwise asked to not alter their diets. The diet of each subject was monitored with food frequency questionnaires (Block G, et al., A data-based approach to diet questionnaire design and testing. Am J Epidemiol, 1986. 24: p. 453-469) completed at baseline, 2 months and 4 months to be sure that there were no confounding changes in dietary intake. All subjects completed at least two sets of cognitive and mood self-report tests, at the beginning of the study, then at the end of the study, after four months of supplementation, at the Schepens Eye Research Institute. Compliance was by monitored by interview, compliance calendars and capsule count. Both the subjects and the experimenter were masked to the experimental groups. Blood samples were collected at baseline, 2 months and 4 months, and serum was separated from red blood cells (800×g, 10 minutes). Aliquots of serum are stored at −70° C. until analyzed. […]

[2] = test system: non-smoking women (60-80 years); assay: Shopping List Task (memory test); settings: group mean
Source text: as §1
(§2) Women were randomly assigned to one of four groups: Control (n=10), DHA (n=14, DHA 800 mg/d), lutein (n=12, lutein 12 mg/d), and lutein+DHA (n=14, lutein 12 mg/d; DHA 800 mg/d) (C, D, L, and LD, respectively). The supplement type was randomized. Subjects visited the Jean Mayer USDA Human Nutrition Research Center on Aging at Tufts University on days that supplements were distributed and blood obtained (0 mo-baseline, 2 mo, and 4 mo). Subjects were instructed to take the supplement with a nutritional energy drink (8 oz., Boost®, Mead Johnson Nutritionals) but were otherwise asked to not alter their diets. The diet of each subject was monitored with food frequency questionnaires (Block G, et al., A data-based approach to diet questionnaire design and testing. Am J Epidemiol, 1986. 24: p. 453-469) completed at baseline, 2 months and 4 months to be sure that there were no confounding changes in dietary intake. All subjects completed at least two sets of cognitive and mood self-report tests, at the beginning of the study, then at the end of the study, after four months of supplementation, at the Schepens Eye Research Institute. Compliance was by monitored by interview, compliance calendars and capsule count. Both the subjects and the experimenter were masked to the experimental groups. Blood samples were collected at baseline, 2 months and 4 months, and serum was separated from red blood cells (800×g, 10 minutes). Aliquots of serum are stored at −70° C. until analyzed. At baseline and 2 months, a two month supply of placebo supplements, DHA (800 mg/d, DHASCO, Martek Biological Sciences), lutein (12 mg/d plus 0.5 mg zeaxanthin, Kemin Foods), or lutein+DHA (12 mg/d and 800 mg/d, respectively and nutritional energy drink was provided. At baseline and 4 months, subjects visited the Schepens Eye Research Institute (Boston, Mass.) for testing of MP optical density (MPOD) and an ophthalmic exam. There were two visits at each time point.
(§3) Supplementation Protocol. Dietary supplements in capsule form were Lutein (12 mg/day) (Kemin Foods) and Docosahexaenoic Acid (DHASCO) (800 mg/day) (Martek Biological Sciences). Participants in each of the four supplementation groups were instructed to drink one can of a nutritional supplement daily (Boost Plus) (Mead Johnson) when taking their capsules. Subjects ingested their dietary supplements daily for a period of 4 months. Both the subjects and the experimenter were masked to the experimental groups.
(§4) Tests and Measurements. The battery of cognitive tests included tests of memory and processing speed or attention and a measure of self-reported mood. […] Early cognitive markers of the incidence of dementia and mortality: A longitudinal population-based study of the oldest old. International Journal of Geriatric Psychiatry, 12, 53-59; Payton, M., Riggs, K. M., Spiro III, A., Weiss, S. T. & Hu, H. (1998). […]

[3] = test system: non-smoking women (60-80 years); assay: Word List Memory Test; settings: group mean
Source text: as §1, §2, §3, §4

[4] = test system: non-smoking women (60-80 years); assay: MIR (Memory in Reality) apartment test; settings: group mean
Source text: as §1, §2, §3, §4

[5] = test system: non-smoking women (60-80 years); assay: NES2 Pattern Comparison (Pattern Recognition) Test; settings: group mean
Source text: as §1, §2, §3, §4

[6] = test system: non-smoking women (60-80 years); assay: Stroop Test (computerized); settings: group mean; for Stroop Test Total RT, Interference (NC-C): subtask 4 minus subtask 3
Source text: as §1, §2, §3, §4

[7] = test system: serum lipoproteins (VLDL, LDL, HDL); assay: Serum cholesterol, lipoproteins and lipoprotein subfractions by NMR spectroscopy; settings: for Serum HDL concentration / Serum LDL concentration / Serum VLDL concentration / Serum total Cholesterol concentration: after 4 months of supplementation, mean ± se
Description: At study end (4 mo), serum was analyzed for total cholesterol, lipoproteins (VLDL, LDL, HDL) as well as lipoprotein subfractions using NMR spectroscopy (Otvos, J. D., Clin Lab, 2002. 48: p. 171-180). The NMR method employs the characteristic methyl group signals broadcast by lipoprotein subclasses of different size as the basis for their quantification. Each measurement includes the concentrations of 5 subclasses of HDL (larger numbers denoting larger subclasses), 3 subclasses of LDL and 6 subclasses of VLDL (V1-V6). Lipoprotein subclasses were grouped into large, intermediate and small subclasses. That is, large, intermediate, and small HDL were H5+H4, H3, and H2+H1, respectively. Large, intermediate and small LDL were L3, L2, and L1, respectively. And large, intermediate and small VLDL were V6+V5, V4+V3, and V2+V1, respectively.
Results are expressed as mean ±SE. Within each group, each subject was followed longitudinally and significant differences from baseline were measured using Student's paired t-test (Systat version10, Port Richmond, Calif. Group differences were measured using ANOVA followed by the Bonferroni post hoc test (Systat10).

[8] = Baseline, before supplementation
[9] = Final, after 4 months of supplementation (DHA 800 mg/d and/or lutein 12 mg/d)
[10] = Final, after 4 months of supplementation

| Compound | Verbal Fluency [1, 8] | Verbal Fluency [1, 9] | Shopping List Memory Test Delayed Recall (max. 10) [2, 8] | Shopping List Memory Test Trial 1 Items Recalled (max. 10) [2, 8] | Shopping List Memory Test Trials to Learned List (max. 6) [2, 8] | Shopping List Memory Test Delayed Recall (max. 10) [2, 10] | Shopping List Memory Test Trial 1 Items Recalled (max. 10) [2, 10] | Shopping List Memory Test Trials to Learned List (max. 6) [2, 10] | Word List Memory Test Delayed Recall (max. 10) [3, 8] | Word List Memory Test Trial 1 Items Recalled (max. 10) [3, 8] | Word List Memory Test Trials to Learned List (max. 4) [3, 8] | Word List Memory Test Delayed Recall (max. 10) [3, 10] | Word List Memory Test Trial 1 Items Recalled (max. 10) [3, 10] | Word List Memory Test Trials to Learned List (max. 4) [3, 10] | MIR Apartment Test Delayed Recall (max. 10) [4, 8] | MIR Apartment Test Location Recall (max. 10) [4, 8] | MIR Apartment Test Delayed Recall (max. 10) [4, 10] | MIR Apartment Test Location Recall (max. 10) [4, 10] | Pattern Recognition Test Mean Response Time-Correct [5, 8] | Pattern Recognition Test Number Correct (max. 15) [5, 8] | further results |
| --- | --- | --- | --- | --- | --- | --- | --- | --- | --- | --- | --- | --- | --- | --- | --- | --- | --- | --- | --- | --- | --- |
| CC/C=C\C/C=C\C/C=C\C/C=C\C/C=C\C/C=C\CCC(=O)O [DHA, cis-4,7,10,13,16,19-docosahexaenoic acid] | 15.0 | 17.8 | 9.0 | 7.2 | 3.1 | 8.7 | 7.7 | 2.6 | 8.1 | 6.3 | 3.0 | 8.6 | 5.9 | 3.0 | 9.4 | 9.9 | 9.4 | 10.0 | 5.4 s | 14.6 | Pattern Recognition Test Mean Response Time-Correct [5, 10]: 5.0 s; Pattern Recognition Test Number Correct (max. 15) [5, 10]: 14.6; Stroop Test Mean RT, Name Colors [6, 8]: 838 ms; Stroop Test Mean RT, Name Colors-Words [6, 8]: 1269 ms; Stroop Test Mean RT, Read Words-Black [6, 8]: 879 ms; Stroop Test Mean RT, Read Words-Color [6, 8]: 715 ms; Stroop Test Total RT, Interference (NC-C) [6, 8]: 21.5 s; Stroop Test Mean RT, Name Colors [6, 10]: 884 ms; Stroop Test Mean RT, Name Colors-Words [6, 10]: 1277 ms; Stroop Test Mean RT, Read Words-Black [6, 10]: 748 ms; Stroop Test Mean RT, Read Words-Color [6, 10]: 727 ms; Stroop Test Total RT, Interference (NC-C) [6, 10]: 19.7 s; Serum HDL concentration [7]: 67 ± 3 mg cholesterol/dL; Serum LDL concentration [7]: 125 ± 5 mg cholesterol/dL; Serum VLDL concentration [7]: 78 ± 14 mg cholesterol/dL; Serum total Cholesterol concentration [7]: 209 ± 5 mg cholesterol/dL |
| CC1=C[C@H](O)CC(C)(C)[C@H]1/C=C/C(C)=C/C=C/C(C)=C/C=C/C=C(C)/C=C/C=C(C)/C=C/C1=C(C)C[C@@H](O)CC1(C)C [Lutein, lutein] | 11.3 | 15.5 | 8.3 | 6.9 | 4.2 | 7.6 | 6.5 | 3.9 | 6.8 | 5.8 | 3.4 | 7.6 | 5.8 | 3.5 | 8.3 | 9.5 | 8.6 | 9.5 | 6.1 s | 14.5 | Pattern Recognition Test Mean Response Time-Correct [5, 10]: 6.4 s; Pattern Recognition Test Number Correct (max. 15) [5, 10]: 14.3; Stroop Test Mean RT, Name Colors [6, 8]: 1008 ms; Stroop Test Mean RT, Name Colors-Words [6, 8]: 1492 ms; Stroop Test Mean RT, Read Words-Black [6, 8]: 844 ms; Stroop Test Mean RT, Read Words-Color [6, 8]: 753 ms; Stroop Test Total RT, Interference (NC-C) [6, 8]: 24.2 s; Stroop Test Mean RT, Name Colors [6, 10]: 1014 ms; Stroop Test Mean RT, Name Colors-Words [6, 10]: 1462 ms; Stroop Test Mean RT, Read Words-Black [6, 10]: 945 ms; Stroop Test Mean RT, Read Words-Color [6, 10]: 883 ms; Stroop Test Total RT, Interference (NC-C) [6, 10]: 22.4 s; Serum HDL concentration [7]: 70 ± 5 mg cholesterol/dL; Serum LDL concentration [7]: 113 ± 6 mg cholesterol/dL; Serum VLDL concentration [7]: 75 ± 12 mg cholesterol/dL; Serum total Cholesterol concentration [7]: 199 ± 8 mg cholesterol/dL; Intermediate HDL subclass, group comparison ([7]; study end (4 mo)): significantly greater in the L group than in the LD group |
